The results in this text go back to patent US20230097883A1, “ERGOTHIONEINE PET COMPOUNDS AND METHODS OF USE THEREOF” (VANDERBILT UNIVERSITY, priority 2021, published 2023).

“Also recorded” adds a separate entry of the source. Where only a bound is given, the exact number is not on record here.

Data set [1] concerns 5XFAD mice. The data set is described as follows: Elevated zero maze after ERGO treatment. Format: in vivo, mouse. Here is the method:
To address our primary question whether longitudinal consumption of ERGO as a potent antioxidant benefit the brain, three cohorts of animals (n=12 non-treated WT control, n=12 non-treated 5XFAD, and n=18 ERGO-treated 5XFAD) were used (FIG. 3.2A). Starting at the age of 8 weeks, the animals were treated with high doses of ERGO solution (25-50 mg/Kg) formulated in double distilled (dd) water via oral gavage three times a week over the course of eight weeks. To reduce bias in the behavioral experiments with regard to the potential stress during gavage treatment, non-treated animals underwent the identical gavage process with the vehicle, water, only. The efficacy of the therapy was evaluated by behavioral testing, followed by three different non-invasive PET imaging sessions to assess biomarkers related to AD pathology. In addition to assessing Abeta levels and glucose metabolism using the [^11C]PIB and [^18F]FDG probes, respectively; we also tested for the first time whether oxidative stress could be used as an indicator of response to therapy using the [^11C]ERGO PET radioligand. […]
We recorded exploratory activity in open versus closed zones of a standard EZM during a 5-min trial. […] Closed zones had walls of approximately 30 cm height and light levels of 215-280 lux depending on where they were measured. […]

In data set [2] the test system is HeLa cells. Nature of the data set: DCFH-DA ROS scavenging assay in HeLa cells. The data set is classed as cell-based. The text has this:
We used a commercially available DCFH-DA (2′,7′-dichlorodihydrofluorescein diacetate) probe to assess the ROS scavenging power of ERGO in HeLa and neuroblastoma SH-SY5Y cells. Upon penetrating the cytoplasm, DCFH-DA is deacetylated by endogenous esterases to a non-fluorescent intermediate, followed by oxidation by free radicals. This generates a continuous and extended conjugation system, resulting in the production of highly fluorescent DCF (2′ 7′-dichlorofluorescein). In an aqueous condition, DCF has a maximal excitation and emission of 495 nm and 529 nm, respectively. Well-adhered HeLa or SH-SY5Y cells previously incubated with DCFH-DA were exposed to a commercial ROS initializer and ERGO concentrations ranging from 0-100 mM. […] Each point in the assay was measured in pentaplicate, p<0.0001.
On day 1, HeLa cells or SH-SY5Y cells were seeded into a 96-well plate with a density of 10,000 cells/mL. […] Immediately afterwards, fluorescence measurement began using a microplate reader (Biotek Industries, Agilent Technologies, Winooski, Vt., USA) with an excitation and emission wavelength of 485 nm and 528 nm, respectively. Each ERGO concentration was measured in pentaplicate.

Data set [3] is described as follows: 90-minute dynamic PET scanning of [11C]ERGO biodistribution in the brain of 5XFAD mice. Format: in vivo, mouse. As to the method:
The dynamic acquisition was divided into twelve 5 sec frames, four 60 sec frames, five 120 sec frames, three 5 min frames, and six 10 min scans. The data from all possible lines of response (LOR) were saved in the list mode raw data format. The raw data were then binned into 3D sinograms with a span of 3 and ring difference of 47. The images were reconstructed into transaxial slices (128×128×159) with voxel sizes of 0.0815×0.0815×0.0796 cm^3, using the MAP algorithm with 16 subsets, 4 iterations, and a beta of 0.0468. For anatomical co-registration, immediately following the PET scans, the mice received a CT scan in a NanoSPECT/CT (Mediso, Wash. D.C.) at an X-ray beam intensity of 90 mAs and x-ray peak voltage of 45 kVp. The CT images were reconstructed into 170×170×186 voxels at a voxel size of 0.4×0.4×0.4 mm^3. The PET/CT images were uploaded into Amide software (www.sourceforge.com), co-registered to an MRI template made in-house, and volumetric regions-of-interest were drawn around the cortex, hippocampus, striatum, thalamus, and cerebellum in addition to the whole brain. The PET images were normalized to the injected dose, and the time-activity-curves (TACs) of the mean activity within the ROIs were estimated for the entire duration of the scans.
To test the distribution of ERGO non-invasively in vivo, approximately 37 MBq/0.1 mL of [^11C]ERGO probe was given to anesthetized 5XFAD mice (8-month-old, n=4) in single bolus intravenous (I.V.) injection via the lateral tail vein. The administration of the probe was simultaneous with the start of a 90-minute dynamic PET imaging, followed by subsequent CT scan. The PET images were normalized to the injected dose, and the time-activity-curves (TACs) of the mean activity within the ROIs were estimated for the entire duration of the scans. Within 5 min post I.V. injection, [^11C]ERGO can be detected in the brain parenchyma (FIG. 1.5A, top panel). […] Using an age-matched mouse brain template, the positron-emitted signal at different brain regions was quantified using AMIDE software. […]

In the case of `C[N+](C)(C)[C@@H](Cc1c[nH]c(=S)[nH]1)C(=O)[O-]` [ERGO, L-ergothioneine], the “adverse effects on activity or anxiety-like behavior” value in data set [1] (5XFAD mice, ERGO 25-50 mg/Kg oral gavage three times a week over eight weeks) is reported as “no adverse effects”. For the same molecule, the “time spent exploring the closed zones” value in data set [1] (ERGO-treated 5XFAD mice (each group), 5-min trial) is listed as ~60%. The “DCF fluorescence signal (ROS)” value is recorded as “nearly negligible; also recorded: quenches the fluorescence totally” in data set [2] (ERGO 100 mM) and “attenuates the fluorescence significantly” in data set [2] (ERGO starting from 5 mM).
With `C[N+](C)([11CH3])[C@@H](Cc1c[nH]c(=S)[nH]1)C(=O)[O-]` [[^11C]ERGO], the “time post I.V. injection at which the probe can be detected in the brain parenchyma” value in data set [3] (8-month-old, approx. 37 MBq/0.1 mL single I.V. bolus) is ≤ 5 min. In addition, in data set [3] (30 min post radiotracer injection), the “retention of the probe in the brain” value is “still remained in the brain”. Also, in data set [3] (approx. 37 MBq/0.1 mL I.V., 90-min dynamic PET), the “regional distribution of the probe in the brain (PET signal)” value is “high concentration in the cerebellum and cortex”.
